Earlier results on two compounds are cited in US20220235022A1 (priority 2019, published 2022).

SMILES strings stand for the structures.

For data set [1] the following is noted: conjugate acid of the base, approximate values.
The conditions of data set [2]: compared with Δ^9-THC; reported.

`Cc1cccc(C)n1` [2,6-dimethylpyridine]: the “pKa (conjugate acid in DMSO)” value in data set [1] is listed as 4.46. `CCCCCc1cc(O)c2c(c1)OC(C)(C)[C@@H]1CC=C(C)C[C@@H]21` [Δ^8-THC, Δ^8-tetrahydrocannabinol]: in data set [2], the “less potent in terms of psychoactivity” value is “approximately 50%”.
